Laboratory results as given in patent publication US20230330093A1, “APPLICATION OF NITROGEN-CONTAINING SATURATED HETEROCYCLIC COMPOUND” (SHANGHAI PHARMACEUTICALS HOLDING CO., LTD., priority 2020, published 2023).
Where “and” joins values, the source holds several entries; their conditions need not be identical. Equal values may be shown once.

Key:
[1] = system: rhesus monkeys with spontaneous chronic kidney disease; experiment: Effect on serum K+, 8-week administration; conditions: Valsartan group (n = 3)
Procedure: In the trial, animals were brought in three stages. In the first stage, there were two groups: 3 animals (No. 257, No. 4721, No. 287) in a group with 5 mg/kg of the malate of compound of formula I, and 2 animals (No. 1029, No. 4713) in the placebo group. […] In the third stage, there were two groups: 5 animals (No. 4829, No. 6501, No. 287, No. 4721, No. 2091) in a group with 2 mg/kg of the malate of compound of formula I, and 5 animals (No. 1567, No. 4861, No. 5453, No. 6653, No. 5073) in a group with 1 mg/kg of the malate of compound of formula I.
Serum potassium, twice before administration, once every 2 weeks during the administration period;
Blood biochemical and urine index detection equipment: Roche cobas6000 analyzer series C501 module detection. ELISA kit was used for NT-proBNP test.

[2] = system: rhesus monkeys with spontaneous chronic kidney disease; experiment: Effect on blood pressure (SBP, DBP, MBP, HR) after anesthesia, 8-week administration; assay type: in vivo, Macaca mulatta (Rhesus Macaque); conditions: for DBP / SBP: Valsartan group (n = 3)
Text: In the trial, animals were brought in three stages.
Route of administration: Oral administration.
After anesthesia, the animal was placed in a supine position. The left upper arm was shaved clean, and a suitable size cuff was tied according to the standard. The blood oxygen probe was clamped on the animal's finger or toe (except for the left hand), and the red light-sensitive surface was on the side of the finger pad. The blood pressure of the animal was continuously measured for 3 times in the automatic mode with an interval of 1 min. If the difference of DBP, SBP and MBP of blood pressure measured more than three times was not significant (the difference between the highest value and the lowest value was less than 15 mmHg), the measurement was completed.
Testing equipment: GE B40i electrophysiological monitor.
See Table 16 for the effects of administration of each administration group on blood pressure. The blood pressure test of primates required anesthesia, so it was necessary to control the variability of heart rate at various time points to make statistics.

[3] = system: rhesus monkeys with spontaneous chronic kidney disease; experiment: Effect on plasma creatinine Cr-P, 8-week administration; assay type: in vivo, Macaca mulatta (Rhesus Macaque); conditions: Valsartan group (n = 3)
Procedure: In the trial, animals were brought in three stages. […] Glomerular filtration rate […]: creatinine (Cr-P), urea nitrogen (BUN) and cystatin (CysC) were detected, and the eGFR value was obtained by calculation. It was performed once before the administration and once every two weeks after the administration. […] ELISA kit was used for NT-proBNP test. [table]

[4] = system: rhesus monkeys with spontaneous chronic kidney disease; experiment: Effect on glomerular filtration rate eGFRcreat-cys, 8-week administration; assay type: in vivo, Macaca mulatta (Rhesus Macaque); conditions: for eGFRcreat-cys / eGFRcreat-cys Change value (8 weeks): Valsartan group (n = 3); for eGFRcreat-cys Change value (8 weeks): 8 weeks − Baseline
Procedure: CKD-EPI rating […]-G3b, glomerular filtration rate eGFR: 30 59 ml/min/1.73 m^2; or moderate to severe increase in proteinuria (A2-A3): urine albumin/creatinine ratio (UACR)>15 mg/g-350 mg/g (4-6 hour urine collection), vs. age-matched control group 3±2 mg/g. In the trial, animals were brought in three stages. […] Glomerular filtration rate […]: creatinine (Cr-P), urea nitrogen (BUN) and cystatin (CysC) were detected, and the eGFR value was obtained by calculation. It was performed once before the administration and once every two weeks after the administration. […] ELISA kit was used for NT-proBNP test. [table] Selected […] in each group: 30 59 ml/min/1.73 m^2. The changes in the glomerular filtration rate of W8 and baseline were analyzed.

[5] = Baseline, single animals and Mean ± SD
[6] = Baseline, single animals and Mean ± SD, mean
[7] = Valsartan group (n=3), after W8 administration, p<0.01 vs placebo

For CCCCC(=O)N(Cc1ccc(-c2ccccc2-c2nnn[nH]2)cc1)[C@H](C(=O)O)C(C)C [Valsartan, reference compound], the “K^+” value ([1]; 2 weeks, Mean ± SD) was 5.09 ± 0.54 mmol/L, the “K^+” value ([1]; 2 weeks, individual animals) was 5.38 mmol/L and 4.47 mmol/L and 5.43 mmol/L and the “K^+” value ([1]; 4 weeks, Mean ± SD) was 5.04 ± 0.58 mmol/L. The “K^+” value ([1]; 4 weeks, individual animals) was 5.68 mmol/L and 4.55 mmol/L and 4.88 mmol/L, the “K^+” value ([1]; 6 weeks, Mean ± SD) was 5.06 ± 0.24 mmol/L and the “K^+” value ([1]; 6 weeks, individual animals) was 5.28 mmol/L and 4.81 mmol/L and 5.09 mmol/L. For the same compound, the “K^+” value ([1]; 8 weeks, Mean ± SD) was 5.13 ± 0.74 mmol/L, the “K^+” value ([1]; 8 weeks, individual animals) was 5.94 mmol/L and 4.50 mmol/L and 4.95 mmol/L and the “K^+” value ([1]; Baseline 1, Mean ± SD) was 4.37 ± 0.54 mmol/L. For the same compound, the “K^+” value ([1]; Baseline 1, individual animals) was 4.94 mmol/L and 3.86 mmol/L and 4.31 mmol/L, the “K^+” value ([1]; Baseline 2, Mean ± SD) was 4.66 ± 0.40 mmol/L and the “K^+” value ([1]; Baseline 2, individual animals) was 4.63 mmol/L and 4.27 mmol/L and 5.07 mmol/L. The DBP ([2]; 4 weeks) was 62 mmHg and 53 mmHg, the SBP ([2]; 4 weeks) was 130 mmHg and 106 mmHg and 138 mmHg and the DBP ([2]; 4 weeks, mean) was 59 ± 5 mmHg. For the same compound, the SBP ([2]; 4 weeks, mean) was 125 ± 17 mmHg, the DBP ([2]; 8 weeks) was 61 mmHg and 53 mmHg and 75 mmHg and the SBP ([2]; 8 weeks) was 121 mmHg and 107 mmHg and 133 mmHg. The DBP ([2]; 8 weeks, mean) was 63 ± 11 mmHg, the SBP ([2]; 8 weeks, mean) was 120 ± 13 mmHg and the DBP ([2]; Baseline) was 67 mmHg and 60 mmHg and 82 mmHg. For the same compound, the DBP ([2]; Baseline, mean) was 70 ± 11 mmHg, the SBP [2, 5] was 131 mmHg and 125 mmHg and 148 mmHg and the SBP [2, 6] was 135 ± 12 mmHg. For the same compound, the “DBP decreased by on average, compared with the baseline” value [2, 7] was 7±0 mmHg, the “SBP decreased by on average, compared with the baseline” value [2, 7] was 14±4 mmHg and the Cr-P ([3]; 2 weeks) was 1.12 mg/dL and 1.22 mg/dL. The Cr-P ([3]; 2 weeks, mean) was 1.15 ± 0.06 mg/dL, the Cr-P ([3]; 4 weeks) was 1.12 mg/dL and 1.08 mg/dL and 1.26 mg/dL and the Cr-P ([3]; 4 weeks, mean) was 1.15 ± 0.09 mg/dL. For the same compound, the Cr-P ([3]; 6 weeks) was 1.11 mg/dL and 1.26 mg/dL, the Cr-P ([3]; 6 weeks, mean) was 1.16 ± 0.09 mg/dL and the Cr-P ([3]; 8 weeks) was 1.09 mg/dL and 1.03 mg/dL and 1.26 mg/dL. For the same compound, the Cr-P ([3]; 8 weeks, mean) was 1.13 ± 0.12 mg/dL, the Cr-P [3, 5] was 1.28 mg/dL and 1.31 mg/dL and 1.50 mg/dL and the Cr-P [3, 6] was 1.36 ± 0.12 mg/dL. For the same compound, the “eGFRcreat-cy, Change value” ([4]; Valsartan group 2.67 mg/kg/time oral (qd wk 1-2, bid wk 3-8), Baseline, per animal + Mean ± SD) was 0 ml/min/1.73 m^2, the “eGFRcreat-cy, Change value” ([4]; Valsartan group 2.67 mg/kg/time oral (qd wk 1-2, bid wk 3-8), Baseline, per animal + Mean ± SD, mean) was 0 ± 0 ml/min/1.73 m^2 and the “eGFRcreat-cy, Change value” ([4]; Valsartan group 2.67 mg/kg/time oral, 2 weeks vs baseline, per animal + Mean ± SD) was 4 ml/min/1.73 m^2 (2×) and 6 ml/min/1.73 m^2. The “eGFRcreat-cy, Change value” ([4]; Valsartan group 2.67 mg/kg/time oral, 2 weeks vs baseline, per animal + Mean ± SD, mean) was 5 ± 1 ml/min/1.73 m^2, the “eGFRcreat-cy, Change value” ([4]; Valsartan group 2.67 mg/kg/time oral, 4 weeks vs baseline, per animal + Mean ± SD) was 1 ml/min/1.73 m^2 and 7 ml/min/1.73 m^2 and 6 ml/min/1.73 m^2 and the “eGFRcreat-cy, Change value” ([4]; Valsartan group 2.67 mg/kg/time oral, 4 weeks vs baseline, per animal + Mean ± SD, mean) was 5 ± 3 ml/min/1.73 m^2. The “eGFRcreat-cy, Change value” ([4]; Valsartan group 2.67 mg/kg/time oral, 6 weeks vs baseline, per animal + Mean ± SD) was 1 ml/min/1.73 m^2 and 5 ml/min/1.73 m^2 and 7 ml/min/1.73 m^2, the “eGFRcreat-cy, Change value” ([4]; Valsartan group 2.67 mg/kg/time oral, 6 weeks vs baseline, per animal + Mean ± SD, mean) was 4 ± 3 ml/min/1.73 m^2 and the “eGFRcreat-cy, Change value” ([4]; Valsartan group 2.67 mg/kg/time oral, 8 weeks vs baseline, per animal + Mean ± SD (p<0.01 vs placebo)) was 6±2 ml/min/1.73 m^2 and 5 ml/min/1.73 m^2 and 8 ml/min/1.73 m^2. The eGFRcreat-cys ([4]; 2 weeks) was 58 ml/min/1.73 m^2 and 54 ml/min/1.73 m^2 and 46 ml/min/1.73 m^2, the eGFRcreat-cys ([4]; 2 weeks, group mean) was 53 ± 6 ml/min/1.73 m^2 and the eGFRcreat-cys ([4]; 4 weeks) was 55 ml/min/1.73 m^2 and 57 ml/min/1.73 m^2 and 46 ml/min/1.73 m^2. For the same compound, the eGFRcreat-cys ([4]; 4 weeks, group mean) was 53 ± 6 ml/min/1.73 m^2, the eGFRcreat-cys ([4]; 6 weeks) was 55 ml/min/1.73 m^2 and 47 ml/min/1.73 m^2 and the eGFRcreat-cys ([4]; 6 weeks, group mean) was 53 ± 5 ml/min/1.73 m^2. The eGFRcreat-cys ([4]; 8 weeks) was 60 ml/min/1.73 m^2 and 59 ml/min/1.73 m^2 and 46 ml/min/1.73 m^2, the “eGFRcreat-cys Change value (8 weeks)” value [4] was 5 ml/min/1.73 m^2 and 8 ml/min/1.73 m^2 and the “eGFRcreat-cys Change value (8 weeks)” value ([4]; group mean) was 6 ± 2 ml/min/1.73 m^2. The eGFRcreat-cys ([4]; 8 weeks, group mean) was 55 ± 8 ml/min/1.73 m^2, the eGFRcreat-cys [4, 5] was 55 ml/min/1.73 m^2 and 50 ml/min/1.73 m^2 and 40 ml/min/1.73 m^2 and the eGFRcreat-cys ([4]; Baseline, single animals and Mean ± SD, group mean) was 48 ± 7 ml/min/1.73 m^2.
